Each structure is given as a SMILES string.

Here are results for six compounds from patent US11547703B2, “Substituted fused heteroaromatic tricyclic compounds as kinase inhibitors and the use thereof” (IMPACT THERAPEUTICS (SHANGHAI), INC, priority 2017, dated 2023).

Experiment [1] concerns human colon cancer cell SW620. The experiment is described as follows: MTT assay, growth of SW620 cells, compounds combined with CPT-11. It counts as cell-based. The following applies: for IC50: Homo sapiens, SW-620, 120 h, 205 nM CPT-11, 5 days, MTT. As to the method: (§1) SW620 cells were digested by trypsinase, centrifuged at 800 rpm for 5 minutes, the supernatant was discarded, resuspended with fresh medium (RPMI 1640 medium+10% FBS) and counted. The cells were seeded into 96-well cell culture plate with appropriate cell density and incubated overnight in a 37° C. 5% CO2 incubator. The stock solutions of the tested compound and the reference compound AZD0156 were serially diluted to 8 concentrations by DMSO at the ratios of 1:3 and 1:10, respectively, and the last concentration was negative control of DMSO (0 μM, the final concentration of DMSO was 1%). 5 μL of each concentration was added to 120 μL of medium (25 times diluted) and mixed by shaking. The overnight cells were taken and the culture medium was removed, 195 μL of fresh medium containing 205 nM CPT-11 was added to each well, and 5 μL of diluted medium containing the corresponding concentration of the tested sample was added respectively, and the culture plate was then placed in the 5% CO2 cell culture incubator at 37° C. for 5 days. After removing the original solution, 100 μL of fresh serum-free DMEM medium containing MTT (0.5 mg/mL) was added to each well, the culture was continued. After 4 hours, the original solution was removed, 100 μL of DMSO was added into each well, the 96-well plates were shaken away from light for 10 minutes and placed in a multi-function reader to read the absorbance at the wavelength of 552/630/690 nm. GraphPad Prism 6.0 was used to analyze the data. The inhibitory activity of compounds on cell proliferation was plotted based on cell viability and compound concentration. The IC50 value was fitted by a sigmoidal dose response curve equation Y=100/(1+10^(Log C−Log IC50)), where C was the concentration of compound.
(Tetrazolium dyes change colour on reduction, which living cells bring about.)

Experiment [2] concerns human breast cancer cell MDA-MB-468. The experiment is described as follows: MTT assay, growth of MDA-MB-468 cells. Conditions: for IC50: Homo sapiens, MDA-MB-468, 168 h, single agent, 7 days, MTT. It counts as cell-based. The method, then:
as §1, with “MDA-MB-468 cells” for “SW620 cells”, “1:10, respectively:” for “1:10, respectively, and”, “medium (PRMI 1640+5% FBS)” for “medium containing 205 nM CPT-11”, “for 7 days (On the fourth day, the medium containing drugs was removed and fresh medium containing drugs was added for continuous cultivation).” for “for 5 days.”

In experiment [3] the target is ATM enzyme (human) (Homo sapiens, UniProt Q13315). The experiment is described as follows: ATM kinase assay (HTRF, phosphorylation of GST-cMyc-p53). It counts as biochemical. Conditions: 0.5 h; detected concentration 1 μm. As to the method:
ATM enzyme (human) was added to the reaction solution containing 30 nM GST-cMyc-p53 and 10 μM Mg/ATP, and then 50 times the concentration of the tested compound (or reference compound AZD0156) dissolved in 100% DMSO was added to the final concentration of 10 μM/1 μM/0.1 μM/0.01 μM. The reaction was initiated by the addition of a Mg/ATP mixture and incubation for 30 minutes at room temperature, the reaction was quenched by the addition of a stop solution containing EDTA. Finally, the detection buffer containing the d2-labeled anti-GST monoclonal antibody and the europium-labeled anti-phospho p53 (Ser15) antibody was added. The plate was then read in time resolved fluorescence mode and the homogeneous time resolved fluorescence (HTRF) signal was determined according to the equation: HTRF=10000×(Em665nm/Em620nm). Each compound sample was repeated in duplicate. The negative control contained all components except the ATM enzyme, and the positive control contained all components. All reactions were quenched by adding EDTA.
The compounds were serially diluted to 10 concentrations with 100% DMSO at the ratio of 1:3 and 1:10 (the last concentration was negative control of DMSO), then added to the ATM buffer and diluted to a final concentration of 10, 3, 1, 0.3, 0.1, 0.03, 0.01, 0.003, 0.001 and 0 μM, respectively. ATM kinase inhibition was detected by using the method described above. The curve equation for calculating IC50 value is as follows: […]
wherein, C is the concentration of compound and D is the slope factor. Table 2 summarizes the IC50 values of compounds inhibiting ATM kinase.
For orientation: Time-resolved FRET reads energy transfer from a long-lived donor to a nearby acceptor.

Chain of ATM enzyme (human) (Q13315 whole entry): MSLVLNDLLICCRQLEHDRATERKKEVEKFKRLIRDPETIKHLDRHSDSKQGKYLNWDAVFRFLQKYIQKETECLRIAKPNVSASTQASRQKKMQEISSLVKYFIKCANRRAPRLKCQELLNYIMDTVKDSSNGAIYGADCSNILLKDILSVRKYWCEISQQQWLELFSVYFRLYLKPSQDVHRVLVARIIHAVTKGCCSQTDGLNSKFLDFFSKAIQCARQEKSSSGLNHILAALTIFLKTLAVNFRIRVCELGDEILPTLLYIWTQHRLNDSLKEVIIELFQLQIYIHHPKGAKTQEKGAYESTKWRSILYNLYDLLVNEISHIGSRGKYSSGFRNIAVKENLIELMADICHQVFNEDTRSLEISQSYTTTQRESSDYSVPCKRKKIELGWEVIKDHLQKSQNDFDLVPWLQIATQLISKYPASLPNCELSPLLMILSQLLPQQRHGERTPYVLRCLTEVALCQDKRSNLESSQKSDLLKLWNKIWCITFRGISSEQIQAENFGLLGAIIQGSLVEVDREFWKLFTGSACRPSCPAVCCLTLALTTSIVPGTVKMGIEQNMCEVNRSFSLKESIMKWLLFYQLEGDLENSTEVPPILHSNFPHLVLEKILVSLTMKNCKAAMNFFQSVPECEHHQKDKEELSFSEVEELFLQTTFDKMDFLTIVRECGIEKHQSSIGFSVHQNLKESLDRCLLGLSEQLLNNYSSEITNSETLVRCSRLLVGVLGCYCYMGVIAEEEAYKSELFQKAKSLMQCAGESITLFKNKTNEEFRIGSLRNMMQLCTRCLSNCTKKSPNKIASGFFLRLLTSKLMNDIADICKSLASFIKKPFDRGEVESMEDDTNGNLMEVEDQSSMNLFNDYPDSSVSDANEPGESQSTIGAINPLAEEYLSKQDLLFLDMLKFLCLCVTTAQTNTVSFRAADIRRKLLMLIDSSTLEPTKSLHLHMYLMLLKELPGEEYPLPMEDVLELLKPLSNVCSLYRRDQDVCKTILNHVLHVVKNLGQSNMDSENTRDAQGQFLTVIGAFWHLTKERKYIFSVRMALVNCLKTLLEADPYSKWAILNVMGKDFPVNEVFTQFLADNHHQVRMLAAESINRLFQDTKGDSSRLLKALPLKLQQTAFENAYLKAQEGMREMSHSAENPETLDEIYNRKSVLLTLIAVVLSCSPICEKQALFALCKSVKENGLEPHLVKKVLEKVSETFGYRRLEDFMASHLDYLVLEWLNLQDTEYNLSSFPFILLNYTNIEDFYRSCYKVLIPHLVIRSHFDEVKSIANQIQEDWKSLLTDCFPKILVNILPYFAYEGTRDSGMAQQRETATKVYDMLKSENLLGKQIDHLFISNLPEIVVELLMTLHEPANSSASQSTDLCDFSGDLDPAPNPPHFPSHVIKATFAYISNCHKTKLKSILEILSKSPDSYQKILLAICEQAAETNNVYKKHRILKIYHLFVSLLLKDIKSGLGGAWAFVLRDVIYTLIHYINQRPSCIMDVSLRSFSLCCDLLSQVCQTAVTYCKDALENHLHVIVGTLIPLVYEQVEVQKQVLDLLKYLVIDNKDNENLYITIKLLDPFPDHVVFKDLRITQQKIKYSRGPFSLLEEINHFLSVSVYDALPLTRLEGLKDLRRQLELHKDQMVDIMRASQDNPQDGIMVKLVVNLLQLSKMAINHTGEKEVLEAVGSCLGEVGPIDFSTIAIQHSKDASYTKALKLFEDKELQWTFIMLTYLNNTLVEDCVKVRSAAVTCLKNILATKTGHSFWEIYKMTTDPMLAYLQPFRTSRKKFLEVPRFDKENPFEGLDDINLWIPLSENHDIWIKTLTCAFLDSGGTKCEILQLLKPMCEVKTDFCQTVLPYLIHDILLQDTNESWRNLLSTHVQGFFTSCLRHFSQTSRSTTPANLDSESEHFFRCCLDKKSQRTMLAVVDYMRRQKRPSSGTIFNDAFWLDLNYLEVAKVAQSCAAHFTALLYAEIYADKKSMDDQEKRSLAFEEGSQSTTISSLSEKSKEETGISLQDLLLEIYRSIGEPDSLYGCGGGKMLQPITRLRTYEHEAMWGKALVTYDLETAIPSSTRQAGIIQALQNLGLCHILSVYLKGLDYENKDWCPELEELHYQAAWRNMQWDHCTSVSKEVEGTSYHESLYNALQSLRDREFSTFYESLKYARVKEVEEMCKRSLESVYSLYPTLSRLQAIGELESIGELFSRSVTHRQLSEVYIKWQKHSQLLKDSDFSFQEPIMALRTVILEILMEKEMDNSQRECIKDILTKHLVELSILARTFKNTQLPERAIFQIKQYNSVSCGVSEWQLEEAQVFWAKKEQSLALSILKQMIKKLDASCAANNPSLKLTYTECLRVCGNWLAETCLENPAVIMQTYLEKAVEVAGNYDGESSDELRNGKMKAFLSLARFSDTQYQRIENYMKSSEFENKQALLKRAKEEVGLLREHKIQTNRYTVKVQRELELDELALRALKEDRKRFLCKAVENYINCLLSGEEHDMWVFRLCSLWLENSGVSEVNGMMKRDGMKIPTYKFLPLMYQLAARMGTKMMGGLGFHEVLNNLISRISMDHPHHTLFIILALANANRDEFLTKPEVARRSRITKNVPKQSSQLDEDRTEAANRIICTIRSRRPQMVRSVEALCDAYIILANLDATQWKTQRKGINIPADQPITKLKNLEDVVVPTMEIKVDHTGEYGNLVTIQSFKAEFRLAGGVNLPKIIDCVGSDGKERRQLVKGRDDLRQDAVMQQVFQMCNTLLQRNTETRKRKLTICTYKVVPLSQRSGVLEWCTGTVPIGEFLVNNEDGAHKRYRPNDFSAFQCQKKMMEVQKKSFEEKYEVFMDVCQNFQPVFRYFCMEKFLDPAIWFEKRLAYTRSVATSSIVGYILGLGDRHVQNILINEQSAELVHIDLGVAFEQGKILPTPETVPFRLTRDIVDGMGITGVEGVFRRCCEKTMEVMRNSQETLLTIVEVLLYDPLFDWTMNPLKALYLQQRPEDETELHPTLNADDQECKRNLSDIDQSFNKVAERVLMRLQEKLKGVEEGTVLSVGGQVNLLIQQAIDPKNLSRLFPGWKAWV

The term IC50 denotes the midpoint of a concentration-inhibition curve. The term inhibition denotes the change of the read-out against control, counted positive when it falls. Read a low inhibition as a response near the control. With `CN(C)CCCOc1ccc(-c2ccc3nc4cccc(N5CCN(C)CC5)c4n3c2)cc1C(F)(F)F` [Example 44, N,N-dimethyl-3-(2-(trifluoromethyl)-4-(9-(4-methylpiperazin-1-yl)benzo[4,5]imidazo[1,2-a]pyridin-2-yl)phenoxy)propan-1-amine], the IC50 in experiment [1] is over 500 nM; in experiment [2], over 100000 nM. Besides, 1 µM produced 97% inhibition in experiment [3].
As to `C[C@@H]1CN(c2cccc3nc4ccc(-c5ccc(N6CCC(N(C)C)CC6)cc5)cn4c23)C[C@H](C)N1C` [Example 45, N,N-dimethyl-1-(4-(9-((3S,5R)-3,4,5-trimethylpiperazin-1-yl)benzo[4,5]imidazo[1,2-a]pyridin-2-yl)phenyl)piperidin-4-amine], the IC50 was over 500 nM in experiment [1] and 322 nM in experiment [2]. For the same compound, the inhibition at 1 µM in experiment [3] is 100%.
Take `C[C@@H]1CN(c2cccc3nc4ccc(-c5ccc(N6CCC(N(C)C)CC6)c(F)c5)cn4c23)C[C@H](C)N1C` [Example 46, N,N-dimethyl-1-(2-fluoro-4-(9-((3S,5R)-3,4,5-trimethylpiperazin-1-yl)benzo[4,5]imidazo[1,2-a]pyridin-2-yl)phenyl)piperidin-4-amine]: the IC50 in experiment [1] amounted to 152 nM; in experiment [2], 55 nM. The same compound returned an inhibition at 1 µM in experiment [3] of 100%.
On the same counts, the results for `C[C@@H]1CN(c2cccc3nc4ccc(-c5ccc(N6CCC(N(C)C)CC6)c(Cl)c5)cn4c23)C[C@H](C)N1C` [Example 47, N,N-dimethyl-1-(2-chloro-4-(9-((3S,5R)-3,4,5-trimethylpiperazin-1-yl)benzo[4,5]imidazo[1,2-a]pyridin-2-yl)phenyl)piperidin-4-amine] are 166 nM, 60.5 nM and 100%.
With `C[C@@H]1CN(c2cccc3nc4ccc(-c5ccc(N6CCC(N(C)C)CC6)c(C(F)(F)F)c5)cn4c23)C[C@H](C)N1C` [Example 48, N,N-dimethyl-1-(2-(trifluoromethyl)-4-(9-((3S,5R)-3,4,5-trimethylpiperazin-1-yl)benzo[4,5]imidazo[1,2-a]pyridin-2-yl)phenyl)piperidin-4-amine], the IC50 in experiment [1] and in experiment [2] was over 1000 nM throughout. Also, testing at 1 µM in experiment [3] gave an inhibition of 100%.
Take `CN(C)C1CCN(c2ccc(-c3ccc4nc5cccc(N6CCC(N(C)C)CC6)c5n4c3)cc2)CC1` [Example 56, N,N-dimethyl-1-(4-(9-(4-(dimethylamino)piperidin-1-yl)benzo[4,5]imidazo[1,2-a]pyridin-2-yl)phenyl)piperidin-4-amine]: the figures for the IC50 in experiment [1] and in experiment [2] were 40.9 nM and 41.4 nM, respectively. For the same compound, the “growth of SW620 cell (in words)” value in experiment [1] (MTT assay) was “inhibited the growth”. The “growth of MDA-MB-468 cell (in words)” value in experiment [2] (MTT assay) is reported as “inhibited the growth”. In experiment [3], this compound registered an inhibition at 1 µM of 81%.
